# Read-outs that look alike come from different tables or passages of the source.
# Key:
# [1] = system: PC12 cells expressing SSF-DOR; assay: Fixed cell immunofluorescence assay of DOR localization (intracellular/Golgi retention) in PC12 cells expressing SSF-DOR; type: cell-based, rat; conditions: for amount of cells exhibiting intracellular DOR (retention) after inhibitor alone / percentage of cells with internal localization of DOR within the Golgi region: no NGF; for amount of cells exhibiting intracellular DOR (retention) after inhibitor alone: Wortmannin 10 μM, Chelerythrine 5 μM, PP2 10 μM, Akt ½ kinase inhibitor 1 μM; for percentage of cells with internal localization of DOR within the Golgi region: PI3K inhibitor 10 μM alone
# Excerpt: PC12 cells undergo neuronal specific signaling and differentiation in response to NGF.
# To determine the mechanism regulating NGF-induced DOR retention, pharmacologic inhibition of known NGF-TrkA signaling molecules and quantification of the DOR localization via fixed cell immunofluorescence were employed. […]
# Alternatively, it was chosen to use the neuroendocrine PC12 cell line as the model system.
# To confirm that the NGF-induced internal localization is retention and not only due to increased protein production in response to NGF, the mechanistic evaluation was continued in the presence of Cycloheximide (CHX, 3 μg/mL) to inhibit new protein synthesis. […] Again referring to FIG. 3, for the evaluation of required downstream signaling targets, pharmacologic inhibition of TrkA effectors was performed to determine the pathway required for NGF-induced retention of DOR.
# It was therefore sought to determine if inhibition of PI3K via treatment with Wortmannin alone was sufficient to induce intracellular retention of DOR using a fixed cell immunofluorescence assay.
# [2] = system: SSF-DOR expressing PC12 cells; assay: Fluorescence antibody internalization assay of the surface pool of DOR; type: cell-based, rat; conditions: 1-hour treatment; NGF 100 ng/mL, Wortmannin 10 μM, LY294002 10 μM, 740Y^PDGFR 25 μg/mL, DADLE 10 μM
# Method: To eliminate the possibility that surface localized DOR was being actively internalized following PI3K inhibition, a fluorescence antibody internalization assay was performed in combination with pharmacologic inhibition of PI3K. SSF-DOR expressing PC12 cells were incubated with a cell-impermeable primary M1-Alexa 647 conjugated antibody to label the surface pool of receptors. The cells were treated with pharmacologic agents for 1 hour as in previous experiments, and receptor internalization was determined by adding a cell-impermeable secondary Alexa-488 conjugated antibody that recognizes the M1 primary antibody. The amount of internalization is quantified using a Pearson's Correlation Coefficient to determine the colocalization of the primary and secondary antibodies.
# [3] = system: DOR; assay: cAMP EPAC FRET biosensor assay of DOR signaling in live PC12 cells; type: cell-based, rat
# [4] = system: primary Trigeminal Ganglion (TG) neurons transfected with SSF-DOR; assay: Fixed cell immunofluorescence of DOR localization in primary Trigeminal Ganglion neurons transfected with SSF-DOR; type: cell-based, mice
# Excerpt: To begin the example, confirmation that SSF-DOR was internally retained and localized with the Golgi complex in primary Trigeminal Ganglion (TG) sensory neurons was desired. First, primary TGs from adult mice were isolated and cultured. The SSF-DOR DNA construct was then transiently transfected into cultured TGs for subsequent localization analysis. Using a fixed-cell immunofluorescence assay, the location of SSF-DOR with an Alexa-488 conjugated anti-Flag M1 antibody was visualized, and the receptor signal was compared to an antibody against the Golgi marker GPP130. […] PC12 cells expressing SSF-DOR have a membrane localized expression pattern with little to no Golgi colocalization when analyzed via fixed cell fluorescence confocal microscopy. […]
# By using the neuroendocrine PC12 cell line as our model system, PTEN inhibition was identified as a tool to prevent the internal retention of DOR following NGF administration. […] Graphical quantification of the percentage of DOR localized within the Golgi compared to the total cell DOR fluorescence is shown in FIG. 9 (top), and the Pearson's Correlation Coefficient between the DOR fluorescence and the GPP130 Golgi fluorescence in FIG. 9 (bottom).
# [5] = system: SSF-MOR expressed in PC12 cells; assay: Fixed cell immunofluorescence assay of MOR localization in PC12 cells expressing SSF-MOR; type: cell-based, rat; conditions: 1-hour; NGF 100 ng/mL, Wortmannin 10 μM, LY294002 10 μM
# Method: Previously, it was shown that the NGF-induced retention is specific to DOR and has minimal effect on MOR^37. It was therefore asked if retention of DOR via PI3K inhibition was also specific to DOR. To determine this specificity, the sufficiency of NGF, and PI3K inhibition by Wortmannin or LY294002, to promote intracellular retention of SSF-MOR expressed in PC12 cells was evaluated using the fixed cell immunofluorescence assay. Under basal no treatment conditions, SSF-MOR was prominently localized to the cell surface. Upon NGF (100 ng/mL), Wortmannin (10 μM), or LY294002 (10 μM) treatment for 1-hour, the majority of the SSF-MOR signal was localization to the cell surface with minimal overlap within the Golgi region.
# [6] = with NGF and CHX, Y-27632 5 μM, U0126 10 μM, Akt1/2 Kinase Inhibitor 500 nM, U73122 10 μM, Chelerythrine 10 μM, PP2 500 nM
compound,measurement,setting,value
O=C(NCc1c(F)cccc1F)c1sccc1OCc1ccc(Cl)cc1Cl [AS1938909],DOR retention in combination with NGF versus NGF treatment alone,[1],not significantly different
same,percentage of cells exhibiting Golgi localized DOR and percentage of DOR fluorescence within the Golgi,[1]; SHIP2 inhibitor AS1938909 10 μM only,significant increase
O=c1[nH]c2ccccc2n1C1CCN(Cc2ccc(-c3nc4cc5nc[nH]c5cc4nc3-c3ccccc3)cc2)CC1 [Akt1/2 Kinase Inhibitor],amount of cells exhibiting intracellular DOR (retention) after inhibitor alone,[1],did not significantly increase
same,effect on NGF-induced retention of DOR,[1]; [6],no statistical effect
"C[C@@H]1C[C@@H]([C@H](O)CC2CC(=O)NC(=O)C2)C(=O)[C@@H](C)C1 [CHX, Cycloheximide]",percentage of SSF-DOR expressing PC12 cells with internal localization of DOR,"[1]; CHX 3 μg/mL alone, 1 hour",16%
COc1ccc2c(c[n+](C)c3c4cc5c(cc4ccc23)OCO5)c1OC [Chelerythrine],amount of cells exhibiting intracellular DOR (retention) after inhibitor alone,[1],did not significantly increase
same,effect on NGF-induced retention of DOR,[1]; [6],no statistical effect
CC(C)C[C@@H](NC(=O)[C@H](Cc1ccccc1)NC(=O)CNC(=O)[C@@H](C)NC(=O)[C@@H](N)Cc1ccc(O)cc1)C(=O)O [DADLE],colocalization of primary and secondary antibody (Pearson's Correlation Coefficient; internalization of surface DOR),[2],minimal antibody colocalization
same,inhibition of Forskolin induced cAMP by DADLE,"[3]; 1 hour NGF pretreatment, Forskolin 5 μM, DADLE 10 μM",81%
O=c1cc(N2CCOCC2)oc2c(-c3ccccc3)cccc12 [LY294002],percentage of cells with internal localization of DOR within the Golgi region,[1],88%
CC(C)(C)n1nc(-c2ccc(Cl)cc2)c2c(N)ncnc21 [PP2],amount of cells exhibiting intracellular DOR (retention) after inhibitor alone,[1],did not significantly increase
same,effect on NGF-induced retention of DOR,[1]; [6],no statistical effect
CC(C)(C)C(=O)Nc1ccc2c(c1)C(=O)C(=O)c1ccccc1-2 [SF1670],percentage of DOR fluorescence localized with the Golgi compared to the total DOR fluorescence,[4]; SF1670 alone and in combination with NGF,decreased significantly
same,effect of PTEN inhibitor on NGF-induced retention of DOR,"[1]; with NGF 100 ng/mL, bpV(HOptic) 10 μM",prevented NGF-induced retention of DOR in a dose dependent manner
same,inhibition of cAMP upon DADLE treatment after CNA blockade and PTEN inhibition,"[3]; NGF pre-treatment, CNA blockade, SF1670 10 μM, Forskolin, DADLE",80%
same,increase of cAMP inhibition over that obtained after CNA alone,[3]; SF1670 10 μM after CNA versus CNA alone,61%
N#CC(=C(/N)Sc1ccccc1N)/C(C#N)=C(\N)Sc1ccccc1N [U0126],effect on NGF-induced retention of DOR,[1],no statistical effect
COc1ccc2c(c1)CC[C@@H]1[C@@H]2CC[C@]2(C)[C@@H](NCCCCCCN3C(=O)C=CC3=O)CC[C@@H]12 [U73122],effect on NGF-induced retention of DOR,[1]; [6],no statistical effect
COC[C@H]1OC(=O)c2coc3c2[C@@]1(C)C1=C(C3=O)[C@@H]2CCC(=O)[C@@]2(C)C[C@H]1OC(C)=O [Wortmannin],percentage of cells with internal localization of DOR,[1]; NGF 100 ng/ml and Wortmannin 10 μM,87%
same,percentage of cells with internal localization of DOR within the Golgi region,[1],88%
same,percentage of cells with intracellular retention of DOR,"[1]; Wortmannin 10 μM in combination with NGF, 1-hour CHX chase",97%
C[C@@H](N)[C@H]1CC[C@H](C(=O)Nc2ccncc2)CC1 [Y-27632],effect on NGF-induced retention of DOR,[1]; [6],no statistical effect
NGF: Nerve Growth Factor; initiates internal retention of DOR in PC12 cells via TrkA,colocalization between DOR and GPP130 Golgi marker (Pearson's Correlation Coefficient),[4]; NGF treatment,significant increase in colocalization
same,colocalization of primary and secondary antibody (Pearson's Correlation Coefficient; internalization of surface DOR),[2],very strong colocalization
same,change in intracellular retention of MOR (percentage of cells with Golgi localized MOR and percentage of MOR fluorescence within the Golgi),[5],non-significant change
same,percentage of cells with internal localization of DOR colocalized with the Golgi,"[1]; NGF 100 ng/mL, 1 hour (FIG. 3 right)",80%
same,percentage of transfected cells with internal localization of DOR,"[1]; NGF 100 ng/mL, 1 hour, no CHX",90%
same,percentage of cells imaged with internal localization of DOR,[1]; NGF added 1 hour before CHX addition and chased for 1 hour,80%

# From patent US9823260B2, “Method to increase bioavailability of the delta-opioid receptor for management of pain and neuropsychiatric disorders” (priority 2014, dated 2017)
